From ChEMBL document CHEMBL5291721, “A preclinical secondary pharmacology resource illuminates target-adverse drug reaction associations of marketed drugs” (Nat Commun, 2023)

How the values were obtained:
[1] = molecular target: Gamma-aminobutyric acid receptor subunit alpha-1 (Rattus norvegicus, UniProt P62813)
[2] = molecular target: T1, 5-hydroxytryptamine receptor 1A (Homo sapiens, UniProt P08908); format: functional, cell-based
T1 sequence (P08908 whole entry): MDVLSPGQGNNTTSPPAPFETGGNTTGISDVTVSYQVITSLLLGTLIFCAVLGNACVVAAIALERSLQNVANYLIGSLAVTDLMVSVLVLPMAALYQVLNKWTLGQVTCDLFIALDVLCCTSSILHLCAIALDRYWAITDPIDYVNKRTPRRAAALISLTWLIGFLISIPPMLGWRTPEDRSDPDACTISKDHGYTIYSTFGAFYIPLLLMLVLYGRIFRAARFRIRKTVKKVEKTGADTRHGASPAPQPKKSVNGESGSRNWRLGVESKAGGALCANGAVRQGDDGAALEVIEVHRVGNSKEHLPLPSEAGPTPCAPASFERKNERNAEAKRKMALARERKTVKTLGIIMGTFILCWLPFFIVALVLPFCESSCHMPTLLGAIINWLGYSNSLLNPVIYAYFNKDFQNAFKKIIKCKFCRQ

[3] = molecular target: D(1A) dopamine receptor (Homo sapiens, UniProt P21728); format: functional, cell-based
[4] = molecular target: T2, Glucocorticoid receptor (Homo sapiens, UniProt P04150)
T2 sequence (P04150 whole entry): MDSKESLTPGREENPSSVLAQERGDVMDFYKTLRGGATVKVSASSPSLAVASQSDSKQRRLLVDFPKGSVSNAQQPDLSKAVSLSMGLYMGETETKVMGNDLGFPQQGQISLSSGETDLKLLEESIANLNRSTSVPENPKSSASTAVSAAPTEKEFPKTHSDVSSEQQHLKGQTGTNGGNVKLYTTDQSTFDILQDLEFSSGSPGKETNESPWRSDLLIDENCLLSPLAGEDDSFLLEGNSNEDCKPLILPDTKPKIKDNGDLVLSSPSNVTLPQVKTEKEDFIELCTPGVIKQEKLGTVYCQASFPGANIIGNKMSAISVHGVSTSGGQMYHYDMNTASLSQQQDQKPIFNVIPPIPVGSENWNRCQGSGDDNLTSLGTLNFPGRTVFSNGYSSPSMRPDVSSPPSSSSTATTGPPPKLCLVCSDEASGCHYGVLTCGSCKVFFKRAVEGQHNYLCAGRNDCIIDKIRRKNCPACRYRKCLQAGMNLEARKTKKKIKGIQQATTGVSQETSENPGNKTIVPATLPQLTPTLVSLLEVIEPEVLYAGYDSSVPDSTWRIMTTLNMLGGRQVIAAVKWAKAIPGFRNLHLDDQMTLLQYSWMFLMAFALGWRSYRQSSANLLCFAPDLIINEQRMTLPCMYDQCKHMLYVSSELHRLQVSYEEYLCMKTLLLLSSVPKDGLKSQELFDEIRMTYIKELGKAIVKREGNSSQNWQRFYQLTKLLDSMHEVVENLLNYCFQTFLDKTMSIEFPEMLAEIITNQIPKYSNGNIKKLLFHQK

[5] = molecular target: Sodium-dependent serotonin transporter (Homo sapiens, UniProt P31645)
[6] = molecular target: Voltage-dependent L-type calcium channel subunit alpha-1C (Rattus norvegicus, UniProt P22002); format: functional
[7] = molecular target: Sodium-dependent noradrenaline transporter (Homo sapiens, UniProt P23975)
[8] = molecular target: T3, Type-1 angiotensin II receptor (Homo sapiens, UniProt P30556)
T3 sequence (P30556 whole entry): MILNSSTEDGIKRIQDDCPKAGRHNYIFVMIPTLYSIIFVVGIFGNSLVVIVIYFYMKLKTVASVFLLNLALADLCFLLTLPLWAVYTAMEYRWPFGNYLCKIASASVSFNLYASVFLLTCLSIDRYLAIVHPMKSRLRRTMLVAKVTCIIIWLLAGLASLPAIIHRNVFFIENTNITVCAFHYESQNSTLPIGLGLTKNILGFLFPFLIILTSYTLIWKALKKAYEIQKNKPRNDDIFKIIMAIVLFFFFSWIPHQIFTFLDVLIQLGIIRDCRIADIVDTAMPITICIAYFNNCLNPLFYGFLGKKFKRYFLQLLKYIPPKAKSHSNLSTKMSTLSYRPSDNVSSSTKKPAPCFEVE

[9] = molecular target: Voltage-gated inwardly rectifying potassium channel KCNH2 (Homo sapiens, UniProt Q12809); format: functional; details: read-out: AC50
[10] = molecular target: T4, Muscarinic acetylcholine receptor M2 (Homo sapiens, UniProt P08172); format: functional, cell-based
T4 sequence (P08172 whole entry): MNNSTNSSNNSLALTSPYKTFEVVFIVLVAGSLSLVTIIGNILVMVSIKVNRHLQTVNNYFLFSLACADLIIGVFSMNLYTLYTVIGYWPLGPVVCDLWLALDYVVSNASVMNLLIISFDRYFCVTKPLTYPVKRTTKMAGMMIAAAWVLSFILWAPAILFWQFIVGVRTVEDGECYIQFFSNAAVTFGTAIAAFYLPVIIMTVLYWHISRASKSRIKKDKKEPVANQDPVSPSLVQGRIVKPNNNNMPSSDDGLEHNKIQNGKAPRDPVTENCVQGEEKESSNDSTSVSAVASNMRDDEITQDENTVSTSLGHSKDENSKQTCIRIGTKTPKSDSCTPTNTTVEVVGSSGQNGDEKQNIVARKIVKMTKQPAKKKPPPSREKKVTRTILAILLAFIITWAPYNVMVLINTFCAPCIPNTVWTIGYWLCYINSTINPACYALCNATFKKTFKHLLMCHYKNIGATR

[11] = molecular target: 5-hydroxytryptamine receptor 2A (Homo sapiens, UniProt P28223); format: functional, cell-based
[12] = molecular target: 5-hydroxytryptamine receptor 2B (Homo sapiens, UniProt P41595); format: functional, cell-based
Note: assay procedure not described here.

5-hydroxytryptamine receptor 2B, sequence (P41595 whole entry): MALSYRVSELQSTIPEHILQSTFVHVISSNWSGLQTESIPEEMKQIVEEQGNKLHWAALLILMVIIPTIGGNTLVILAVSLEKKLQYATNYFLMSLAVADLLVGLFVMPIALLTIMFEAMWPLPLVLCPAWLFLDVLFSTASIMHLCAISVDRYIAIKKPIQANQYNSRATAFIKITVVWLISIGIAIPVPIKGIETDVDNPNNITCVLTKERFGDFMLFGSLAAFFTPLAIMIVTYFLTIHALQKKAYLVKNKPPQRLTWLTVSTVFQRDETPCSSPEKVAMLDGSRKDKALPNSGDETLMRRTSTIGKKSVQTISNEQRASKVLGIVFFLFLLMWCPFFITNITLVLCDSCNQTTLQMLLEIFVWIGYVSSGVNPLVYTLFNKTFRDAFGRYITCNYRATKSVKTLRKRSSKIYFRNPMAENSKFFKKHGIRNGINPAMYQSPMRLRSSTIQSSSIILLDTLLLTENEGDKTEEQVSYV
Gamma-aminobutyric acid receptor subunit alpha-1, sequence (P62813 whole entry): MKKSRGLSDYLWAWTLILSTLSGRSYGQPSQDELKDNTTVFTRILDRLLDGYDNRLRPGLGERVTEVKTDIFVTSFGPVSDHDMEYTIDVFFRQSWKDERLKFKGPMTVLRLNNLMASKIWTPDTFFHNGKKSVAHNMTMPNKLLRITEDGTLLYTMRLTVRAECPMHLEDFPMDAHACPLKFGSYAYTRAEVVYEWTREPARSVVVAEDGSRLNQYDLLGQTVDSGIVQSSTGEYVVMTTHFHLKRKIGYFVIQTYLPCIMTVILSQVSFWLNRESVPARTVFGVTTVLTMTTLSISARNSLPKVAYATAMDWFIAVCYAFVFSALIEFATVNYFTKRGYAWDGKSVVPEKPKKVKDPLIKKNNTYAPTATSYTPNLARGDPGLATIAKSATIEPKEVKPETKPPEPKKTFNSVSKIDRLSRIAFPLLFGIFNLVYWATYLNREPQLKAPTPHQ
Voltage-gated inwardly rectifying potassium channel KCNH2, sequence (Q12809 whole entry): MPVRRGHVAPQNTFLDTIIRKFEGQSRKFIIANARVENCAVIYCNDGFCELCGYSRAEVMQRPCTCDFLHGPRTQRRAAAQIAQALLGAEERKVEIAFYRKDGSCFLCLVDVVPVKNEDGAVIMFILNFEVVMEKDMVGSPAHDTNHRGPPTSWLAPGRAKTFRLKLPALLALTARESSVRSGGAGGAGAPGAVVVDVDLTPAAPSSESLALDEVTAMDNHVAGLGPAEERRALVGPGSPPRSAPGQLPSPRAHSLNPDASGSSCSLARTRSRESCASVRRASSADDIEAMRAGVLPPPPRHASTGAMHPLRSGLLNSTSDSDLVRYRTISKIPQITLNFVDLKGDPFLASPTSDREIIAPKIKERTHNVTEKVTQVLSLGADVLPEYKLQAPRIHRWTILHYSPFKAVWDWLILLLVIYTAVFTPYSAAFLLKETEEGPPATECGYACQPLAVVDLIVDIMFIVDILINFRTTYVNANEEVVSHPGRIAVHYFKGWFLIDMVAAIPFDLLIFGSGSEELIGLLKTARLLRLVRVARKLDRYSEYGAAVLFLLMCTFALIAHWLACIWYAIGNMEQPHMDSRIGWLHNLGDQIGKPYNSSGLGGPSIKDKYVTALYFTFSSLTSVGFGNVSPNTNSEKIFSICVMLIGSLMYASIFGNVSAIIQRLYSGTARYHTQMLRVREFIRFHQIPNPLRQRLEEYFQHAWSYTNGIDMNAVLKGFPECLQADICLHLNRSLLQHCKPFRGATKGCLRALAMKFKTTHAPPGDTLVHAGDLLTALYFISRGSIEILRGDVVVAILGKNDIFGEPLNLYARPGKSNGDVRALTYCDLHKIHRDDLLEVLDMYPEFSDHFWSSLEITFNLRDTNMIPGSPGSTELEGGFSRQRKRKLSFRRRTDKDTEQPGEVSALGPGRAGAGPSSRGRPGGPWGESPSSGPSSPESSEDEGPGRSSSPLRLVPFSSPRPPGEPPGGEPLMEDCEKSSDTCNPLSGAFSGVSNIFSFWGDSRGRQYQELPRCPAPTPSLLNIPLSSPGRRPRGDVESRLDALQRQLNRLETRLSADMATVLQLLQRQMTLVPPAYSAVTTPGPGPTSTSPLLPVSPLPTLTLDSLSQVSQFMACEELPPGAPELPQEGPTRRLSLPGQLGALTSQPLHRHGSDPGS
Voltage-dependent L-type calcium channel subunit alpha-1C, sequence (P22002 whole entry): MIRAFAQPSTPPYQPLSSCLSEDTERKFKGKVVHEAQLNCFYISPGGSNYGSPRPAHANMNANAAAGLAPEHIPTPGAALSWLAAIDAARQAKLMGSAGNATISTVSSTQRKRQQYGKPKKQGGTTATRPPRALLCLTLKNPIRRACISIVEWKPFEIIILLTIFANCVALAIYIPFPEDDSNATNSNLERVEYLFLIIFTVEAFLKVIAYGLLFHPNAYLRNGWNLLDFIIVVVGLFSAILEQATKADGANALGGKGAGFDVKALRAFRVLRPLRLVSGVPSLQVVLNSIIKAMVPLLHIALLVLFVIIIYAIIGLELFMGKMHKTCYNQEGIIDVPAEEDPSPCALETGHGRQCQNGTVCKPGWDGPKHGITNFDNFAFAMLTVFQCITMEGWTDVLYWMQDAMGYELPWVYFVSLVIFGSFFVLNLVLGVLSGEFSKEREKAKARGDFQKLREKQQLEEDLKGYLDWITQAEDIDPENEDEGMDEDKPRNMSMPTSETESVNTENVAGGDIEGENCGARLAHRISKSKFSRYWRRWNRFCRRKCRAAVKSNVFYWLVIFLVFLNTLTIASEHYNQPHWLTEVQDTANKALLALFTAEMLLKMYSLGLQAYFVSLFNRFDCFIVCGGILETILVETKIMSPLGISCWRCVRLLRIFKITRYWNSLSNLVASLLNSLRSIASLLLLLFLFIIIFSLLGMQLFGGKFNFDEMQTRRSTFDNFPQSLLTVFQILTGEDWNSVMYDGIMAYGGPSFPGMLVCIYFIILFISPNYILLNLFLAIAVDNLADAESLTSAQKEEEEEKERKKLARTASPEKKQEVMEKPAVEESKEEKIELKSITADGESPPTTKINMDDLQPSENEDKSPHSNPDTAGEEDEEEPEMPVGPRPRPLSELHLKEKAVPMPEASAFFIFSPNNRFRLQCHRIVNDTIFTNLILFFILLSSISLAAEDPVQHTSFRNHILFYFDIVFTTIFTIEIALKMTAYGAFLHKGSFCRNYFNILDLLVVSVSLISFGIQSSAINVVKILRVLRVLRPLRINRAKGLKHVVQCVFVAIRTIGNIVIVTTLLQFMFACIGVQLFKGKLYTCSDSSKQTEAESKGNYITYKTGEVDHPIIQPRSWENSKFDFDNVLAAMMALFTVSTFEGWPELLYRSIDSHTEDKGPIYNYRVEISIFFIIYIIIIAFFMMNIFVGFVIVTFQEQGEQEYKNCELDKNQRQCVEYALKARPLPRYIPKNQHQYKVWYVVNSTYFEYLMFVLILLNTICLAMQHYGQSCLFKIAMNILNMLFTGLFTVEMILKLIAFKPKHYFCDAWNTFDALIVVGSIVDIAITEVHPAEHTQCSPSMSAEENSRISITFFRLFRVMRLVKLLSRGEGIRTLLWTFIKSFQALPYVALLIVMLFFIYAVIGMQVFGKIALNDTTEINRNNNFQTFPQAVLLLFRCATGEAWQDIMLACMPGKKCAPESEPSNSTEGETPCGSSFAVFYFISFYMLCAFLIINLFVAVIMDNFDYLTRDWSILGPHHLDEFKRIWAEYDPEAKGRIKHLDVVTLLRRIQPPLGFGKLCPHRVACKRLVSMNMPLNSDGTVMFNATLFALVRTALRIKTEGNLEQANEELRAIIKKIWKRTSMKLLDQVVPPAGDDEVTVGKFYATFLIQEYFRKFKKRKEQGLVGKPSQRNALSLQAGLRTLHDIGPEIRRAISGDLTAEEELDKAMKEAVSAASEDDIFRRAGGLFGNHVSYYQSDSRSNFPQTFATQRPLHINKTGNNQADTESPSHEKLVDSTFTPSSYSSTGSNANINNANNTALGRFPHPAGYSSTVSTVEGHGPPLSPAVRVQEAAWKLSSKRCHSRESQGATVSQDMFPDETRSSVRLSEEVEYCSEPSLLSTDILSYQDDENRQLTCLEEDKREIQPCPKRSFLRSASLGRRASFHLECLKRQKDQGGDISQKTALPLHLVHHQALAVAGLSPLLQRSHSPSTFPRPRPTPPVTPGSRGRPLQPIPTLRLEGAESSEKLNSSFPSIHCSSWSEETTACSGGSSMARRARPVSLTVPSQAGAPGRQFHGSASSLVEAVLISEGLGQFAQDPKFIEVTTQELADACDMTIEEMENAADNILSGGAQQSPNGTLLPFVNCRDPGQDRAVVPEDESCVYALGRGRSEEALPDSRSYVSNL
D(1A) dopamine receptor, sequence (P21728 whole entry): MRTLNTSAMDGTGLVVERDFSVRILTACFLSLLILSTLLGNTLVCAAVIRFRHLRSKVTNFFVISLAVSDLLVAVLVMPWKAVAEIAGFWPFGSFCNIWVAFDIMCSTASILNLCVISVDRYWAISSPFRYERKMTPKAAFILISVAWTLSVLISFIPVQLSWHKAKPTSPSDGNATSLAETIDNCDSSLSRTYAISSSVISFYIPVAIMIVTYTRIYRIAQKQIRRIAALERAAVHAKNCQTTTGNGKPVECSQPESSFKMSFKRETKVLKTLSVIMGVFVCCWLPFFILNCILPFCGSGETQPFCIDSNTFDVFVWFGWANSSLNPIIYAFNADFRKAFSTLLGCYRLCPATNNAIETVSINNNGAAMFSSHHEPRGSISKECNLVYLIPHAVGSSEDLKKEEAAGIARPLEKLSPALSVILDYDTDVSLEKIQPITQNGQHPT

Compound	AC50 [1]	AC50 [2]	AC50 [3]	AC50 [4]	AC50 [5]	AC50 [6]	AC50 [7]	AC50 [8]	AC50 [9]	AC50 [10]	AC50 [11]	AC50 [12]
COC(=O)[C@H]1[C@H]2C[C@@H]3c4[nH]c5cc(OC)ccc5c4CCN3C[C@H]2C[C@@H](OC(=O)/C=C/c2cc(OC)c(OC)c(OC)c2)[C@@H]1OC [RESCINNAMINE]	> 10 µM	> 10 µM	> 30 µM	> 10 µM	> 30 µM	5.16 µM	> 30 µM	> 10 µM	0.988 µM	> 10 µM	> 10 µM	> 10 µM
Nc1nc(/C(=C/CC(=O)O)C(=O)N[C@@H]2C(=O)N3C(C(=O)O)=CCS[C@H]23)cs1 [CEFTIBUTEN]	> 30 µM	> 30 µM	> 30 µM	> 30 µM	> 30 µM	> 30 µM	> 30 µM	> 30 µM	> 30 µM	> 30 µM	> 30 µM	> 30 µM
COc1ccccc1OCCNCC(O)c1ccc(C)c(S(N)(=O)=O)c1 (stereo not drawn) [AMOSULALOL]	> 30 µM	0.16 µM	> 30 µM	> 30 µM	29 µM	> 30 µM	> 30 µM	> 30 µM	15 µM	> 30 µM	7.7 µM	1.6 µM
CCCC(=O)O[C@]1(C(=O)CO)CC[C@H]2[C@@H]3CCC4=CC(=O)CC[C@]4(C)[C@H]3[C@@H](O)C[C@@]21C [HYDROCORTISONE BUTYRATE]	> 10 µM	> 10 µM	> 10 µM	0.008 µM	> 10 µM	> 10 µM	> 10 µM	> 10 µM	> 30 µM	> 10 µM	> 10 µM	> 10 µM
CN1C(=O)C(O)N=C(c2ccccc2Cl)c2cc(Cl)ccc21 (stereo not drawn) [LORMETAZEPAM]	> 30 µM	> 30 µM	> 30 µM	> 30 µM	> 30 µM	> 30 µM	> 30 µM	> 30 µM	> 30 µM	17 µM	> 30 µM	> 30 µM
C[C@H](CSC(=O)c1ccccc1)C(=O)N1C[C@@H](Sc2ccccc2)C[C@H]1C(=O)O [ZOFENOPRIL]	> 10 µM	> 10 µM	> 10 µM	> 10 µM	> 10 µM	> 10 µM	> 10 µM	> 10 µM	> 30 µM	> 10 µM	> 10 µM	> 10 µM
C=CCN1CCCC1CNC(=O)c1cc(S(N)(=O)=O)cc(OC)c1OC (stereo not drawn) [VERALIPRIDE]	> 30 µM	3.6 µM	> 30 µM	> 30 µM	25 µM	> 30 µM	> 30 µM	> 30 µM	7.6 µM	> 30 µM	24 µM	> 30 µM
COc1cc2c(N)nc(N3CCN(C(=O)OCC(C)(C)O)CC3)nc2c(OC)c1OC [TRIMAZOSIN]	> 30 µM	22 µM	> 30 µM	> 30 µM	> 30 µM	> 30 µM	> 30 µM	> 30 µM	17 µM	> 30 µM	> 30 µM	> 30 µM
C[C@H](N)[C@H](O)c1cccc(O)c1 [METARAMINOL]	> 10 µM	> 10 µM	> 30 µM	> 10 µM	> 10 µM	> 10 µM	> 10 µM	> 10 µM	> 30 µM	> 10 µM	> 10 µM	7.4 µM
